Entries after “also recorded” stand apart in the source; their conditions may differ.
How the values were obtained:
[1] = system: mitochondria of live human primary fibroblasts; test: Photo-toxicity study during repeat photo-illumination and fast mitochondrial imaging; assay type: cell-based; details: for photostability during fast imaging of mitochondria: human primary fibroblasts, fast time lapse (10 sec interval, 300 seconds)
Excerpt: Fast (10 sec interval) time lapse images were acquired for 300 seconds.

[2] = UV-Vis and steady state fluorescence of HC-1 in ten solvents; fluorescence quantum yield; assay type: physicochemical; details: for Quantum yield: reference Rhodamine B (0.55)
Experimental: UV-Vis measurement was performed in Shimadzu UV-Vis spectrophotometer (U2600) and steady state fluorescence study was performed in Horiba-Yobin (Fluorolog3) fluorescence spectrophotometer. For all the fluorescence measurements, excitation and emission slits were kept constant at 2 nm (except studies on pH dependence: excitation/emission=2/4 nm respectively). Final concentration was 2.5 μM (except for measurement of fluorescence quantum yield [1 μM] and lifetime [25 μM]) for all the spectroscopic studies.
The HC-1 absorption and fluorescence were recorded in ten solvents of varying polarity and viscosity.
An aqueous solution of Rhodamine B was used as reference. Fluorescence (integrated intensities) and absorbance values were obtained and the quantum yield was calculated using the following equation;
φ and φr: Quantum yield of sample and reference (0.55) respectively; A and Ar: Absorbance of sample and reference respectively; L: path length of the cuvette (here is same); N and Nr: refractive index of the solvents containing sample and reference; I and Ir: Integrated intensity of fluorescence emission of sample and reference respectively.

[3] = system: live human pluripotent stem cells (hPSCs); test: Mitochondrial imaging of live pluripotent stem cells; assay type: cell-based; details: 250 nM, 30 minutes, confocal
[4] = Effect of pH, ions, serum protein, plasmid DNA and glutathione on HC-1 fluorescence; assay type: physicochemical; details: HC-1 2.5 μM
Experimental: 0.1 M buffers of identical ionic strength solution were used for carryout the experiments. For pH 3, 4, 5 and 5.5, acetate buffer was used, for pH 6.2, 6.9 and 7.4, phosphate buffer was used and for pH 8 and 9.2, Tris-HCl buffer was used. The used salts were Sodium Chloride (NaCl), Potassium Chloride (KCl), Magnesium Chloride (MgCl2), Zinc Chloride (ZnCl2), Nickel Chloride (NiCl2) and Ferric Chloride (FeCl3). Final concentration of the cations (except Zn) was 10 mM and prepared in 1× Phosphate Buffer Saline. For Zn (II), saturated aqueous solution was used. Bovine Serum Albumin (BSA), plasmid DNA and glutathione concentration were at 1 mg−ml^−1, 5 μg−ml^−1 and 10 μM respectively. […] Fluorescence measurement was performed after 30 minutes of incubation.

[5] = system: E14TG2a mouse embryonic stem cells; test: Imaging HC-1 stained mitochondria of embryonic stem cells, incl. long term imaging to check cytotoxicity; assay type: cell-based; details: E14TG2a mouse ESCs with LIF
Experimental: E14TG2a (mouse embryonic stem cells) were cultured in GMEM supplemented with FBS, Glutamine, Non-essential amino acids, β-mercaptoethanol, Penicilin-streptomycin and depending on culture conditions, with or without […] (LIF). […] Images were acquired on the FV1000 confocal microscope. Imaging set up used in the present example was same as the imaging set up used for colocalization described above.
Confocal (FV1000, Olympus) images were acquired for 12 hours at 3 hours interval.

[6] = system: mitochondria of U2OS cells; test: Imaging of live cell mitochondria by HC-1 and co-localization assay with MitoTracker Green; assay type: cell-based, human; details: confocal
Experimental: For imaging, cells were plated on fibronectin coated (final concentration of 10 μg/ml) glass-bottomed dishes and allowed to attach. […] Cells were then washed twice with DPBS and fresh serum-free media was added.
Co-localization assay of HC-1 using MitoTracker Green: Cells were labeled using both MitoTracker Green and HC-1 dyes (by aforementioned protocol). Confocal images were taken using Olympus FV1000 Confocal microscope (×60 oil immersion objective at 1.6× optical zoom). Excitation parameters used were 488 nm excitation and 500-530 nm emission for MitoTracker Green, and 543 nm excitation and emissions above 560 nm for HCl. Pearson correlation dot plot was constructed using Coloc2 plugin of ImageJ.

[7] = system: mitochondria of U2OS cells; test: Effect of Monensin on HC-1 stained mitochondria; assay type: cell-based, human; details: Monensin 10 µM / 10 μM, 0, 30, 60 minutes
[8] = system: primary mouse fibroblasts; test: Imaging local order and viscosity of mitochondria during fibroblast activation; assay type: cell-based; details: HC-1 250 nM with TMRE 125 nM
Experimental: A study on the use of HC-1 for imaging local order and viscosity of mitochondria and use of said imaging to measure changes in mitochondrial function and cellular state and function was carried out.

[9] = system: mitochondria of U2OS cells; test: Effect of CCCP on HC-1 fluorescence (mitochondrial membrane potential); assay type: cell-based, human; details: 5 μM CCCP
Experimental: Effect of Carbonyl Cyanide 3-Chloro Phenylhydrazone [CCCP]: Dye-labeled cells were imaged on the Olympus IX83 inverted microscope coupled to a 560 nm laser line connected to a Evolve 512 Delta EMCCD camera. 5 μM CCCP (final concentration) was used for the assay. Different regions were selected on the dish and imaged before the addition of CCCP and after addition at an interval of about 5 minutes for duration of about 15 minutes.

[10] = HC-1 fluorescence in surfactant micelles (SDS, TritonX-100); CMC by sigmoidal fitting; assay type: physicochemical; details: from HC-1 (2.5 μM) fluorescence intensity versus surfactant concentration
Experimental: Initially 300 mM solution of sodium dodecyl sulfate (SDS) in milli-Q water was prepared. Then, solution of varied concentrations (1-300 mM) by serial dilution was prepared. All the prepared solutions were heated at 70° C. for about 15 minutes and stored at room temperature overnight. Similarly, a stock of 10 mM was prepared for TritonX-100 also. Then solution of different concentration (0.05-4 mM) was prepared by serial dilution.

[11] = system: mitochondria of human embryonic kidney (HEK) cells; test: Effect of CCCP on HC-2 fluorescence; assay type: cell-based; details: 5 μM CCCP
Experimental: (§1) Formula I compounds (dyes) are positively charged and can be easily targeted to the mitochondria of the live cells. The dyes are highly specific for functional mitochondria. Localization is confirmed by ‘colocalization’ assays with mitochondria specific commercial dyes and high-resolution microscopy. […] This stock solution was stored at about 4° C.

[12] = system: mitochondria of human primary fibroblast cells; test: Colocalization of HC-2 with MitoTracker Green; assay type: cell-based; details: live human primary fibroblast cells
Experimental: as §1

[13] = Stability of dye stock solution; assay type: physicochemical; details: 1 mM in 50% DMSO-water, stored at about 4° C.
Experimental: as §1

[14] = system: mitochondria of live HEK 293 cells; test: Effect of Monensin on HC-2 stained mitochondria; assay type: cell-based, human; details: HC-2 250 nM, Monensin 10 μM, 0-90 minutes
[15] = HC-1 in Ethylene glycol (13.5 cP)
[16] = HC-1 in Glycerol (9.50 cP as printed)

Molecule: CN(C)c1ccc(/C=C/C2=[N+](C)c3ccc4ccccc4c3C2(C)C)cc1.[I-] [HC-1, (E)-2-(4-(Dimethylamino)styryl)-1,1,3-trimethyl-1H-benzo[e]indol-3-ium iodide]
- photostability during fast imaging of mitochondria [1]: highly photo-stable; also recorded: significantly more photostable
- λabs ([2]; HC-1 in Acetone (0.32 cP)): 553 nm
- λem ([2]; HC-1 in Acetone (0.32 cP)): 606 nm
- Quantum yield ([2]; HC-1 in Acetone (0.32 cP)): 0.014 ± 0.0002
- λabs ([2]; HC-1 in Acetonitrile (0.37 cP)): 577 nm
- λem ([2]; HC-1 in Acetonitrile (0.37 cP)): 613 nm
- Quantum yield ([2]; HC-1 in Acetonitrile (0.37 cP)): 0.028 ± 0.0002
- λabs ([2]; HC-1 in Benzene (0.6 cP)): 548 nm
- λem ([2]; HC-1 in Benzene (0.6 cP)): 608 nm
- Quantum yield ([2]; HC-1 in Benzene (0.6 cP)): 0.014 ± 0.0001
- λem ([2]; HC-1 in DCM (0.43 cP)): 608 nm
- Quantum yield ([2]; HC-1 in DCM (0.43 cP)): 0.033 ± 0.0005
- λabs ([2]; HC-1 in DMF (0.85 cP)): 553 nm
- λem ([2]; HC-1 in DMF (0.85 cP)): 610 nm
- Quantum yield ([2]; HC-1 in DMF (0.85 cP)): 0.028 ± 0.0003
- λabs ([2]; HC-1 in Ethanol (1.2 cP)): 556 nm
- λem ([2]; HC-1 in Ethanol (1.2 cP)): 607 nm
- Quantum yield ([2]; HC-1 in Ethanol (1.2 cP)): 0.024 ± 0.0002
- λabs [2, 15]: 562 nm
- λem [2, 15]: 610 nm
- Quantum yield [2, 15]: 0.087 ± 0.0004
- λabs [2, 16]: 564 nm
- λem [2, 16]: 610 nm
- Quantum yield [2, 16]: 0.477 ± 0.0005
- λabs ([2]; HC-1 in Methanol (0.6 cP)): 552 nm
- λem ([2]; HC-1 in Methanol (0.6 cP)): 603 nm
- Quantum yield ([2]; HC-1 in Methanol (0.6 cP)): 0.018 ± 0.0002
- λabs ([2]; HC-1 in Water (1 cP)): 542 nm
- λem ([2]; HC-1 in Water (1 cP)): 605 nm
- Quantum yield ([2]; HC-1 in Water (1 cP)): 0.034 ± 0.001
- staining of mitochondria of live hPSCs [3]: uniform staining of the mitochondria
- effect of pH on HC-1 emission ([4]; 0.1 M buffers pH 3-9.2, small changes at ~pH 3 or ~pH 9): little or no effect
- effect of metal ions, serum proteins, plasmid DNA and glutathione (GSH) on HC-1 emission ([4]; 30 minutes incubation): did not significantly affect
- mitochondrial staining of embryonic stem cells [5]: bright staining of the mitochondrial structures
- 2D intensity correlation with MitoTracker Green (Pearson R) [6]: 0.95
- effect of Monensin on HC-1 fluorescence in mitochondria [7]: significant increase in HC-1 fluorescence; also recorded: sensitive to changes in mitochondrial ordering
- change of mitochondrial local ordering in activated fibroblasts [8]: increase in local ordering of the mitochondria
- effect of CCCP on HC-1 fluorescence [9]: rapid and complete loss of HC-1 fluorescence

Molecule: CCCCCCCCCCCCOS(=O)(=O)[O-].[Na+] [SDS, sodium dodecyl sulphate]
- critical micellar concentration (CMC) [10]: ~7.5 mM

Molecule: tetramethylrhodamine, ethyl ester [TMRE, reference compound]
- photo-toxicity during repeat photo-illumination [1]: irradiation induced depolarization of mitochondrial membrane
- photostability during fast imaging of mitochondria [1]: photobleaches

Molecule: CN(C)c1ccc(/C=C/C=C/C2=[N+](C)c3ccc4ccccc4c3C2(C)C)cc1.[I-] [HC-2, 2-((1E,3E)-4-(4-(Dimethylamino)phenyl)buta-1,3-dien-1-yl)-1,1,3-trimethyl-1H-benzo[e]indol-3-ium iodide]
- photostability during fast imaging of mitochondria [1]: highly photo-stable
- staining of mitochondria of live hPSCs [3]: uniform staining of the mitochondria
- effect of CCCP on HC-2 fluorescence [11]: loss of HC-2 fluorescence
- 2D intensity correlation with MitoTracker Green (Pearson R) [12]: 0.91
- stability of stock solution [13]: stable for one year
- effect of Monensin on HC-2 fluorescence in mitochondria [14]: time-dependent increase in fluorescence intensity; also recorded: Time dependent increase in fluorescence intensity

Molecule: TritonX-100
- critical micellar concentration (CMC) [10]: ~1 mM

— US10808128B2, “Compounds as fluorescent probes, synthesis and applications thereof” (priority 2018, dated 2020)
